In patent US8404683B2, “Inhibitors of the interaction between MDM2 and P53” (Janssen Pharmaceutical N.V., priority 2004, dated 2013):

system: U87MG cells; assay: Proliferation assay (MTT-based) on U87MG tumour cells; conditions: Homo sapiens, U-87 MG, 96 h, 4 days of incubation, negative log value of the IC50-value, read-out: cell proliferation pIC50 (converted)
Protocol: U87MG cells are human glioblastoma cells with wild type p53. In this cell line MDM2 tightly controls p53 expression.
Cellular activity of the compounds of formula (I) was determined on U87MG tumour cells using a colorimetric assay for cell toxicity or survival (see example C.2).
All compounds tested were dissolved in DMSO and further dilutions were made in culture medium. Final DMSO concentrations never exceeded 0.1% (v/v) in cell proliferation assays. Controls contained U87MG cells and DMSO without compound and blanks contained DMSO but no cells.
U87MG cells were seeded in 96-well cell culture plates at 3000 cells/well/100 μl. 24 hours later, medium was changed and compound and/or solvent were added to a final volume of 200 μl. Following 4 days of incubation, medium was replaced by 200 μl fresh medium and cell growth was assessed using a MTT-based assay. Therefore, 25 μl of the MTT solution (0.5% MTT research grade from Serva in phosphate-buffered saline) was added to each well and the cells were further incubated for 2 hours at 37° C. The medium was then carefully aspirated and the blue MTT-formazan product was dissolved by adding to each well 25 μl 0.1 M glycin and 100 μl DMSO. The plates were shaken for another 10 min on a micro plate shaker before reading absorbance at 540 nm by a Biorad micro plate reader.
Within an experiment, the results for each experimental condition are the mean of 3 replicate wells. For initial screening purposes, compounds were tested at a single fixed concentration of 10^−5 M. For active compounds, the experiments were repeated to establish full concentration-response curves. For each experiment, controls (containing no drug) and a blank incubation (containing no cells or drugs) were run in parallel. The blank value was subtracted from all control and sample values. For each sample, the mean value for cell growth (in absorbance units) was expressed as a percentage of the mean value for cell growth of the control. When appropriate, IC50-values (concentration of the drug, needed to reduce cell growth to 50% of the control) were computed using probit analysis for graded data (Finney, D. J., Probit Analyses, 2nd Ed. Chapter 10, Graded Responses, Cambridge University Press, Cambridge 1962). Herein the effects of test compounds are expressed as pIC50 (the negative log value of the IC50-value) (see table F-2).

Row | IC50 [nM] | Compound
1 | < 10 | c1ccc2c(Nc3ccc(NCCc4c[nH]c5ccccc45)cc3)ccnc2c1 [Compound 1]
2 | 63.1 | CCOc1cc(Nc2ccncc2)ccc1NCCc1c[nH]c2ccccc12 [Compound 2]
3 | 10 | c1ccc2c(CCNc3ccc(Nc4ccnc5c4CCC5)cc3)c[nH]c2c1 [Compound 4]
4 | 3160 | c1cncc(Nc2ccc(NCCc3c[nH]c4ccccc34)cc2)c1 [Compound 6]
5 | 1260 | Cn1cc(CCN(c2ccncc2)c2ccc(Nc3ccncc3)cc2)c2ccccc21 [Compound 10]
6 | 12.6 | Cc1cc(Nc2ccc(NCCc3c[nH]c4ccccc34)cc2)c2ccccc2n1 [Compound 12]
7 | 25.1 | COc1ccc2c(CCNc3ccc(Nc4ccnc5ccccc45)cc3)c[nH]c2c1 [Compound 13]
8 | 39.8 | OCc1cc(Nc2ccc(NCCc3c[nH]c4ccccc34)cc2)c2ccccc2n1 [Compound 14]
9 | 50.1 | COC(=O)c1ccc2nc(C)cc(Nc3ccc(NCCc4c[nH]c5ccccc45)cc3)c2c1 [Compound 15]
10 | 39.8 | COc1cc(Nc2ccnc3ccccc23)ccc1NCCc1c[nH]c2ccccc12 [Compound 16]
11 | 631 | c1ccc(COc2cc(Nc3ccnc4ccccc34)ccc2NCCc2c[nH]c3ccccc23)cc1 [Compound 17]
12 | 501 | NC(=O)C(Cc1c[nH]c2ccccc12)Nc1ccc(Nc2ccnc3ccccc23)cc1 (stereo not shown) [Compound 18]
13 | 200 | Cc1cc(Nc2ccc(NCCc3c[nH]c4ccccc34)cc2)c2cc(CO)ccc2n1 [Compound 19]
14 | 100 | COc1ccc2nc(C)cc(Nc3ccc(NCCc4c[nH]c5ccccc45)cc3)c2c1 [Compound 20]
15 | 10 | COc1cccc2c(Nc3ccc(NCCc4c[nH]c5ccccc45)cc3)ccnc12 [Compound 21]
16 | 20 | Cc1cccc2c(Nc3ccc(NCCc4c[nH]c5ccccc45)cc3)ccnc12 [Compound 22]
17 | 398 | O=[N+]([O-])c1cccc2c(Nc3ccc(NCCc4c[nH]c5ccccc45)cc3)ccnc12 [Compound 23]
18 | < 10 | COc1ccc2nccc(Nc3ccc(NCCc4c[nH]c5ccccc45)cc3)c2c1 [Compound 24]
19 | 39.8 | Nc1cccc2c(Nc3ccc(NCCc4c[nH]c5ccccc45)cc3)ccnc12 [Compound 25]
20 | 100 | Clc1ccc2c(CCNc3ccc(Nc4ccnc5ccccc45)cc3)c[nH]c2c1 [Compound 26]
21 | 79.4 | Oc1cccc2c(Nc3ccc(NCCc4c[nH]c5ccccc45)cc3)ccnc12 [Compound 27]
22 | 200 | Cn1cc(CCNc2ccc(Nc3ccnc4ccccc34)cc2)c2ccccc21 [Compound 28]
23 | 251 | N#Cc1ccc2nccc(Nc3ccc(NCCc4c[nH]c5ccccc45)cc3)c2c1 [Compound 29]
24 | 316 | CCCc1cc(Nc2ccc(NCCc3c[nH]c4ccccc34)cc2)c2ccccc2n1 [Compound 30]
25 | 1260 | FC(F)(F)c1cccc2c(Nc3ccc(NCCc4c[nH]c5ccccc45)cc3)ccnc12 [Compound 31]
26 | 158 | COc1ccc2[nH]cc(CCNc3ccc(Nc4ccnc5ccccc45)cc3)c2c1 [Compound 32]

Row | IC50 [nM] | Compound
27 | 63.1 | CCc1cc(Nc2ccc(NCCc3c[nH]c4ccccc34)cc2)c2ccccc2n1 [Compound 33]
28 | 50.1 | c1ccc2c(c1)NCC2CCNc1ccc(Nc2ccnc3ccccc23)cc1 (stereo not shown) [Compound 34]
29 | 39.8 | CCOc1cc(Nc2ccnc3ccccc23)ccc1NCCc1c[nH]c2ccccc12 [Compound 35]
30 | 200 | c1ccc2c(CCNc3ccc(Nc4ccncc4)cc3)c[nH]c2c1 [Compound 36]
31 | 158 | OCc1cc(Nc2ccc(NCCc3c[nH]c4ccccc34)cc2)ccn1 [Compound 37]
32 | 631 | c1ccc(-c2cc(Nc3ccc(NCCc4c[nH]c5ccccc45)cc3)ccn2)cc1 [Compound 39]
33 | 1000 | Clc1cc(Nc2ccncc2)ccc1NCCc1c[nH]c2ccccc12 [Compound 45]
34 | 251 | Cc1cc(Nc2ccc(NCCc3c[nH]c4ccccc34)cc2)ccn1 [Compound 46]
35 | 158 | Cc1cc(Nc2ccncc2)ccc1NCCc1c[nH]c2ccccc12 [Compound 47]
36 | 158 | OCC(Cc1c[nH]c2ccccc12)Nc1ccc(Nc2ccncc2)cc1 (stereo not shown) [Compound 48]
37 | > 10000 | O=C(c1cc(Nc2ccc(NCCc3c[nH]c4ccccc34)cc2)ccn1)N1CCCC1 [Compound 49]
38 | 100 | Clc1ccc2c(CCNc3ccc(Nc4ccncc4)cc3)c[nH]c2c1 [Compound 50]
39 | 316 | OCCc1cc(Nc2ccc(NCCc3c[nH]c4ccccc34)cc2)ccn1 [Compound 51]
40 | 501 | O=C(NCCO)c1cc(Nc2ccc(NCCc3c[nH]c4ccccc34)cc2)ccn1 [Compound 52]
41 | 631 | c1ccc2c(CCNc3ccc(Nc4ccnc(CN5CCCC5)c4)cc3)c[nH]c2c1 [Compound 53]
42 | 126 | COc1ccc2c(CCNc3ccc(Nc4ccncc4)cc3)c[nH]c2c1 [Compound 54]
43 | 501 | NCc1cc(Nc2ccc(NCCc3c[nH]c4ccccc34)cc2)ccn1 [Compound 55]
44 | 2510 | O=C(c1ccccc1)c1cc(Nc2ccc(NCCc3c[nH]c4ccccc34)cc2)ccn1 [Compound 56]
45 | 794 | OC(c1ccccc1)c1cc(Nc2ccc(NCCc3c[nH]c4ccccc34)cc2)ccn1 (stereo not shown) [Compound 57]
46 | > 10000 | O=C(O)c1cc(Nc2ccc(NCCc3c[nH]c4ccccc34)cc2)ccn1 [Compound 58]
47 | 398 | CN(C)CCNCc1cc(Nc2ccc(NCCc3c[nH]c4ccccc34)cc2)ccn1 [Compound 59]
48 | 100 | Cc1cnccc1Nc1ccc(NCCc2c[nH]c3ccccc23)cc1 [Compound 60]
49 | 316 | c1ccc(COc2cc(Nc3ccncc3)ccc2NCCc2c[nH]c3ccccc23)cc1 [Compound 61]
50 | 2510 | COc1ccc2[nH]cc(CCNc3ccc(Nc4ccncc4)cc3)c2c1 [Compound 62]
51 | 1580 | CNC(=O)c1cc(Nc2ccc(NCCc3c[nH]c4ccccc34)cc2)ccn1 [Compound 63]
52 | 398 | COCc1cc(Nc2ccc(NCCc3c[nH]c4ccccc34)cc2)ccn1 [Compound 64]

Row | IC50 [nM] | Compound
53 | > 10000 | NC(=O)C(Cc1c[nH]c2ccccc12)Nc1ccc(Nc2ccncc2)cc1 (stereo not shown) [Compound 65]
54 | 63.1 | COc1cc(Nc2ccncc2)ccc1NCCc1c[nH]c2ccccc12 [Compound 66]
55 | 1260 | O=C(OCc1ccccc1)C(Cc1c[nH]c2ccccc12)Nc1ccc(Nc2ccncc2)cc1 (stereo not shown) [Compound 67]
56 | 2510 | c1ccc2c(c1)NCC2CCNc1ccc(Nc2ccncc2)cc1 (stereo not shown) [Compound 68]
57 | 100 | CCOc1cc(Nc2ccnc(CO)c2)ccc1NCCc1c[nH]c2cc(OC)ccc12 [Compound 69]
58 | 251 | O=C(O)Cc1cc(Nc2ccc(NCCc3c[nH]c4ccccc34)cc2)ccn1 [Compound 70]
59 | 794 | c1ccc2c(CCCNc3ccc(Nc4ccncc4)cc3)c[nH]c2c1 [Compound 71]
60 | 2000 | c1ccc2c(CCCNCc3ccc(Nc4ccncc4)cc3)c[nH]c2c1 [Compound 72]
61 | 501 | c1ccc2c(CCCN(CCCc3c[nH]c4ccccc34)Cc3ccc(Nc4ccncc4)cc3)c[nH]c2c1 [Compound 73]
62 | 1580 | c1ccc2c(CCCCNc3ccc(Nc4ccncc4)cc3)c[nH]c2c1 [Compound 74]
63 | 3160 | c1ccc2c(CCNCCc3ccc(Nc4ccncc4)cc3)c[nH]c2c1 [Compound 75]
64 | > 10000 | c1cncc(Nc2cccc(NCCc3c[nH]c4ccccc34)c2)c1 [Compound 76]
65 | 3160 | Cc1[nH]c2ccccc2c1CCNc1ccc(Nc2ccncc2)cc1 [Compound 77]
66 | 10000 | c1cncc(Nc2ccc(NCc3c[nH]c4ccccc34)cc2)c1 [Compound 78]
67 | 2510 | c1ccc2c(CNCc3ccc(Nc4ccncc4)cc3)c[nH]c2c1 [Compound 79]
68 | > 10000 | O=C(CCc1c[nH]c2ccccc12)Nc1cccc(Nc2ccncc2)c1 [Compound 82]
69 | 3160 | CN(c1ccncc1)c1ccc(NCCc2c[nH]c3ccccc23)cc1 [Compound 83]
70 | 1580 | c1cc(NCCCc2c[nH]c3ccccc23)cc(Nc2ccncc2)c1 [Compound 84]
71 | 158 | COc1cc(NCCc2c[nH]c3ccccc23)ccc1Nc1ccncc1 [Compound 85]
72 | > 10000 | N#Cc1cc(Nc2ccc(NCCc3c[nH]c4ccccc34)cc2)ccn1 [Compound 86]
73 | 3160 | CC(NCCNC(=O)OCc1ccccc1)c1cc(Nc2ccc(NCCc3c[nH]c4ccccc34)cc2)ccn1 (stereo not shown) [Compound 88]
74 | 3980 | CC(NCCN)c1cc(Nc2ccc(NCCc3c[nH]c4ccccc34)cc2)ccn1 (stereo not shown) [Compound 89]
75 | 2510 | O=C(OCc1ccccc1)N1CCN(Cc2cc(Nc3ccc(NCCc4c[nH]c5ccccc45)cc3)ccn2)CC1 [Compound 90]
76 | 2510 | c1ccc2c(CCNc3ccc(Nc4ccnc(CN5CCNCC5)c4)cc3)c[nH]c2c1 [Compound 91]
